Measured values published in paper PMC6274259, “New 3-Cyano-2-Substituted Pyridines Induce Apoptosis in MCF 7 Breast Cancer Cells” (Molecules, 2016).

Key:
Type in all cases: cell-based, human
MCF-7 cells = test: Western blot analysis of protein expression
Procedure: Total protein was extracted from treated and untreated cells using lysis buffer (10 mM Tris-HCl (pH 7.5), 1 mM EDTA, 1% Triton X-100, 150 mM NaCl, 1 mM dithiothretol, 10% glycerol, 0.2 mM phenylmethysulphonyl fluoride and protease inhibitors) for 30–50 min on ice. The extracts were centrifuged at 13,000× g for 15 min at 4 °C to remove cell debris. Folin Lowry (Pierce, Grand Island, NY, USA) protein assay was used to figure the protein concentration in the cell lysates. Proteins were resolved by electrophoresis on 8%–10% sodium dodecyl sulphate-polycrylamide gel loading equal amount of proteins per lane. The resolved proteins were transferred onto polyvinylidene difluoride (PVDF) membrane and then probed with primary antibody against the protein of interest prepared in 5% milk/PBS-T. The membrane was washed using phosphate buffer saline with Tween 20 (PBS-T) and then appropriate secondary antibody conjugated to horseradish peroxidase (HRP) was used for visualization of the bands using ECL chemiluminescence kit (GE, Fairfield, CT, USA). Anti-p27, anti-CDK2, anti-CDK4, anti-(p21), anti-(p53), anti-Bax, anti-Akt, anti-Bcl-2, anti-MDM2, anti-cytochrome C, anti-caspase-8, anti-procaspase-8, anti-FAS, anti-VEGF, anti-MMP-9, anti-β-catenin were purchased from SantaCruz (Dallas, TX, USA). Pixel density of the proteins studied was calculated using Image J, version 1.41o, NIH (Bethesda, MD, USA). The values obtained were first normalized to loading control β-actin and the fold change was measured by normalizing to that of the control (0 h) value. At least two independent experiments were performed.

[1] = system: MCF-12a normal breast epithelial cells; test: WST-1 cell viability assay, MCF-12a normal cells; conditions: Homo sapiens, MCF-12A
From the text: (§1) The synthesized compounds were screened for their cytotoxicity on five cancer cell lines, namely SK-OV-3, MCF-7, MDA-MB-231, HCT-116 and RKO, using a WST colorimetric assay. The assay principle is based upon the reduction of the tetrazolium salt WST-1 to formazan by cellular mitochondrial dehydrogenases present in viable cells. […] Among the latter compounds the benzohydrazide derivative 9a emerged with the lowest IC50 in this study against MCF-7 cells compared to 5-FU. […] Based on the fact that 9a had less cytotoxic effects on normal breast epithelial cells it was subjected to further studies. […]
(§2) Cells were trypsinized and placed in a 15 mL Falcon tube, the cells were centrifuged for 3 min at 1000 rpm. […] Cell count was done next by taking 10 μL of the suspension into the cell counting slide and read under 10× cells/mL. […] After 24 h incubation, WST-1 reagent (Sigma) was added to each well and then the plate was incubated for 1 h before measuring the absorbance using VICTOR™ Multilabel Plate Reader (Perkin Elmer, Beaconsfield, UK). The absorbance of the colored solution can be quantified by measuring at a certain wavelength (usually between 500–600 nm), in this experiment the first reading was conducted at 540 nm and the second reading at 690 nm for the reference wavelength. The percentage of cell viability was determined as the ratio of the absorbance of the sample vs the control. […]

[2] = WST-1 cell viability assay, MCF-12a normal cells; conditions: human, MCF-12a normal breast epithelial cells, 2 μM, 24 h
From the text: as §1, §2

SMILES: COc1ccc(-c2cc(-c3ccc(OC)c(OC)c3)c(C#N)c(OCC(=O)NNC(=O)c3ccccc3)n2)cc1OC [Compound 9a, N'-[2-(3-cyano-4,6-bis(3,4-dimethoxyphenyl)pyridin-2-yloxy)acetyl]benzohydrazide]
- expression of CDK2 (MCF-7 cells; 2 μM, 24 h): decreased
- expression of CDK4 (MCF-7 cells; 2 μM, 24 h): decreased
- expression of MMP-9 (MCF-7 cells; 2 μM, 24 h): significantly inhibited
- expression of VEGF (MCF-7 cells; 2 μM, 24 h): significantly inhibited
- expression of caspase-3 (MCF-7 cells; 2 μM, 24 h): up-regulated
- expression of p27 (MCF-7 cells; 2 μM, 24 h): increased
- level of Akt (MCF-7 cells; 2 μM, 24 h): decreased
- level of Bcl-2 protein (MCF-7 cells; 2 μM, 24 h): decreased
- level of MDM2 (MCF-7 cells; 2 μM, 24 h): decreased
- level of procaspase 3 (MCF-7 cells; 2 μM, 24 h): decreased
- expression of cytochrome c in cytoplasm (MCF-7 cells; 2 μM, 24 h, cytosol fraction): increased
- expression of cytochrome c in mitochondria (MCF-7 cells; 2 μM, 24 h, mitochondrial fraction): reduced
- level of Bax (MCF-7 cells; 2 μM, 24 h, vs untreated cells): increased
- level of p21 (MCF-7 cells; 2 μM, 24 h, vs untreated cells): increased
- level of p53 (MCF-7 cells; 2 μM, 24 h, vs untreated cells): increased
- expression of phospho AKT (MCF-7 cells; 0.5, 1 and 2 μM, 24 h): reduced the expression of phospho AKT and β-catenin in dose-dependent manner
- expression of β-catenin (MCF-7 cells; 0.5, 1 and 2 μM, 24 h): reduced the expression of phospho AKT and β-catenin in dose-dependent manner
- expression of FAS (MCF-7 cells; treated vs untreated): no significant change
- expression of caspase-8 (MCF-7 cells; treated vs untreated): no significant change
- expression of procaspase-8 (MCF-7 cells; treated vs untreated): no significant change
- IC50 [1]: 7.5 ± 0.25 µM
- viability at 24 h, 2 µM [2]: ~74%
